± gives the expanded uncertainty stated by the source.
Assay: mn = molality of the nth substance listed, in mol/kg
Settings: 100 kPa, Liquid, Direct current cell with electrodes

Compound `CCCC[N+](CCCC)(CCCC)CCCC.[Br-]` [tetrabutylammonium bromide] + CN(C)C=O has a molar conductivity (283.15 K, m1 = 9.197e-05) of 0.006236 ± 9.7e-06 S·m2/mol, a molar conductivity (283.15 K, m1 = 0.0002922) of 0.006141 ± 8.1e-06 S·m2/mol and a molar conductivity (283.15 K, m1 = 0.0004908) of 0.006078 ± 6.1e-06 S·m2/mol. It also gave a molar conductivity (283.15 K, m1 = 0.0006894) of 0.0060258 ± 4.7e-06 S·m2/mol, a molar conductivity (283.15 K, m1 = 0.001222) of 0.0059158 ± 4e-06 S·m2/mol and a molar conductivity (283.15 K, m1 = 0.00199) of 0.0057906 ± 3.3e-06 S·m2/mol. For the same compound, the molar conductivity (283.15 K, m1 = 0.002938) was 0.0056698 ± 2.9e-06 S·m2/mol, the molar conductivity (283.15 K, m1 = 0.003964) was 0.0055611 ± 2.4e-06 S·m2/mol and the molar conductivity (283.15 K, m1 = 0.005897) was 0.005399 ± 2.2e-06 S·m2/mol. For the same compound, the molar conductivity (283.15 K, m1 = 0.007916) was 0.0052571 ± 2e-06 S·m2/mol, the molar conductivity (283.15 K, m1 = 0.009885) was 0.0051385 ± 1.9e-06 S·m2/mol and the molar conductivity (283.15 K, m1 = 0.01187) was 0.0050378 ± 1.8e-06 S·m2/mol. It also gave a molar conductivity (288.15 K, m1 = 0.0002384) of 0.006641 ± 1e-05 S·m2/mol, a molar conductivity (288.15 K, m1 = 0.0003637) of 0.006588 ± 7.4e-06 S·m2/mol and a molar conductivity (288.15 K, m1 = 0.0005543) of 0.0065255 ± 6.3e-06 S·m2/mol. It also gave a molar conductivity (288.15 K, m1 = 0.0007699) of 0.0064657 ± 5e-06 S·m2/mol, a molar conductivity (288.15 K, m1 = 0.001232) of 0.0063637 ± 4.2e-06 S·m2/mol and a molar conductivity (288.15 K, m1 = 0.00201) of 0.0062266 ± 3.5e-06 S·m2/mol. It also gave a molar conductivity (288.15 K, m1 = 0.002974) of 0.0060937 ± 3.1e-06 S·m2/mol, a molar conductivity (288.15 K, m1 = 0.003946) of 0.005981 ± 2.6e-06 S·m2/mol and a molar conductivity (288.15 K, m1 = 0.005906) of 0.0058005 ± 2.3e-06 S·m2/mol. It also gave a molar conductivity (288.15 K, m1 = 0.007894) of 0.0056496 ± 2.1e-06 S·m2/mol, a molar conductivity (288.15 K, m1 = 0.009876) of 0.0055214 ± 2e-06 S·m2/mol and a molar conductivity (288.15 K, m1 = 0.01183) of 0.0054109 ± 1.9e-06 S·m2/mol. For the same compound, the molar conductivity (293.15 K, m1 = 0.000124) was 0.007196 ± 1.2e-05 S·m2/mol, the molar conductivity (293.15 K, m1 = 0.000358) was 0.007067 ± 9.5e-06 S·m2/mol and the molar conductivity (293.15 K, m1 = 0.0005617) was 0.006993 ± 7e-06 S·m2/mol. It also gave a molar conductivity (293.15 K, m1 = 0.0007496) of 0.0069356 ± 5.5e-06 S·m2/mol, a molar conductivity (293.15 K, m1 = 0.001203) of 0.006825 ± 4.6e-06 S·m2/mol and a molar conductivity (293.15 K, m1 = 0.001974) of 0.0066764 ± 3.8e-06 S·m2/mol. For the same compound, the molar conductivity (293.15 K, m1 = 0.002962) was 0.006528 ± 3.3e-06 S·m2/mol, the molar conductivity (293.15 K, m1 = 0.003941) was 0.0064046 ± 2.7e-06 S·m2/mol and the molar conductivity (293.15 K, m1 = 0.005913) was 0.0062071 ± 2.4e-06 S·m2/mol. For the same compound, the molar conductivity (293.15 K, m1 = 0.007899) was 0.0060446 ± 2.2e-06 S·m2/mol, the molar conductivity (293.15 K, m1 = 0.009903) was 0.0059059 ± 2e-06 S·m2/mol and the molar conductivity (293.15 K, m1 = 0.01185) was 0.0057855 ± 1.9e-06 S·m2/mol. The molar conductivity (298.15 K, m1 = 8.12e-05) was 0.00773 ± 1.3e-05 S·m2/mol, the molar conductivity (298.15 K, m1 = 0.0003247) was 0.007565 ± 1.2e-05 S·m2/mol and the molar conductivity (298.15 K, m1 = 0.0005335) was 0.007478 ± 7.7e-06 S·m2/mol. It also gave a molar conductivity (298.15 K, m1 = 0.000754) of 0.0074043 ± 6e-06 S·m2/mol, a molar conductivity (298.15 K, m1 = 0.001188) of 0.0072894 ± 4.9e-06 S·m2/mol and a molar conductivity (298.15 K, m1 = 0.001985) of 0.0071236 ± 4e-06 S·m2/mol. For the same compound, the molar conductivity (298.15 K, m1 = 0.002972) was 0.0069641 ± 3.4e-06 S·m2/mol, the molar conductivity (298.15 K, m1 = 0.003989) was 0.0068266 ± 2.9e-06 S·m2/mol and the molar conductivity (298.15 K, m1 = 0.005892) was 0.0066212 ± 2.6e-06 S·m2/mol. For the same compound, the molar conductivity (298.15 K, m1 = 0.007909) was 0.0064436 ± 2.3e-06 S·m2/mol, the molar conductivity (298.15 K, m1 = 0.009849) was 0.0062996 ± 2.1e-06 S·m2/mol and the molar conductivity (298.15 K, m1 = 0.0119) was 0.0061631 ± 2e-06 S·m2/mol. The molar conductivity (303.15 K, m1 = 0.0001279) was 0.008182 ± 1.3e-05 S·m2/mol, the molar conductivity (303.15 K, m1 = 0.0003737) was 0.008028 ± 1.2e-05 S·m2/mol and the molar conductivity (303.15 K, m1 = 0.0004937) was 0.007975 ± 8.1e-06 S·m2/mol. For the same compound, the molar conductivity (303.15 K, m1 = 0.0007203) was 0.0078909 ± 6.5e-06 S·m2/mol, the molar conductivity (303.15 K, m1 = 0.00121) was 0.0077502 ± 5.2e-06 S·m2/mol and the molar conductivity (303.15 K, m1 = 0.002013) was 0.0075724 ± 4.3e-06 S·m2/mol. It also gave a molar conductivity (303.15 K, m1 = 0.002974) of 0.0074063 ± 3.6e-06 S·m2/mol, a molar conductivity (303.15 K, m1 = 0.003957) of 0.0072634 ± 3e-06 S·m2/mol and a molar conductivity (303.15 K, m1 = 0.005917) of 0.0070358 ± 2.7e-06 S·m2/mol. The molar conductivity (303.15 K, m1 = 0.00787) was 0.0068512 ± 2.4e-06 S·m2/mol, the molar conductivity (303.15 K, m1 = 0.009823) was 0.0066956 ± 2.2e-06 S·m2/mol and the molar conductivity (303.15 K, m1 = 0.01184) was 0.0065521 ± 2.1e-06 S·m2/mol. The molar conductivity (308.15 K, m1 = 0.0001375) was 0.008672 ± 1.5e-05 S·m2/mol, the molar conductivity (308.15 K, m1 = 0.0003374) was 0.008537 ± 1.1e-05 S·m2/mol and the molar conductivity (308.15 K, m1 = 0.0005902) was 0.008422 ± 8.9e-06 S·m2/mol. The molar conductivity (308.15 K, m1 = 0.0007253) was 0.0083707 ± 6.6e-06 S·m2/mol, the molar conductivity (308.15 K, m1 = 0.001221) was 0.0082189 ± 5.5e-06 S·m2/mol and the molar conductivity (308.15 K, m1 = 0.002004) was 0.0080331 ± 4.5e-06 S·m2/mol. For the same compound, the molar conductivity (308.15 K, m1 = 0.002993) was 0.0078504 ± 3.8e-06 S·m2/mol, the molar conductivity (308.15 K, m1 = 0.003956) was 0.0077012 ± 3.2e-06 S·m2/mol and the molar conductivity (308.15 K, m1 = 0.005922) was 0.0074573 ± 2.8e-06 S·m2/mol. The molar conductivity (308.15 K, m1 = 0.007903) was 0.0072572 ± 2.5e-06 S·m2/mol, the molar conductivity (308.15 K, m1 = 0.009896) was 0.007088 ± 2.3e-06 S·m2/mol and the molar conductivity (308.15 K, m1 = 0.01189) was 0.0069381 ± 2.2e-06 S·m2/mol. The molar conductivity (313.15 K, m1 = 6.835e-05) was 0.009246 ± 1.6e-05 S·m2/mol, the molar conductivity (313.15 K, m1 = 0.0003232) was 0.009042 ± 1.3e-05 S·m2/mol and the molar conductivity (313.15 K, m1 = 0.0005979) was 0.008909 ± 9.5e-06 S·m2/mol. The molar conductivity (313.15 K, m1 = 0.0007057) was 0.0088651 ± 8e-06 S·m2/mol, the molar conductivity (313.15 K, m1 = 0.001228) was 0.0086936 ± 5.9e-06 S·m2/mol and the molar conductivity (313.15 K, m1 = 0.002045) was 0.0084879 ± 4.8e-06 S·m2/mol. The molar conductivity (313.15 K, m1 = 0.002992) was 0.0083023 ± 4e-06 S·m2/mol, the molar conductivity (313.15 K, m1 = 0.003971) was 0.0081415 ± 3.3e-06 S·m2/mol and the molar conductivity (313.15 K, m1 = 0.00585) was 0.0078927 ± 3e-06 S·m2/mol. For the same compound, the molar conductivity (313.15 K, m1 = 0.00787) was 0.0076738 ± 2.6e-06 S·m2/mol, the molar conductivity (313.15 K, m1 = 0.009873) was 0.0074917 ± 2.3e-06 S·m2/mol and the molar conductivity (313.15 K, m1 = 0.01189) was 0.007332 ± 2.2e-06 S·m2/mol. For the same compound, the molar conductivity (318.15 K, m1 = 9.782e-05) was 0.009714 ± 1.5e-05 S·m2/mol, the molar conductivity (318.15 K, m1 = 0.0003254) was 0.009541 ± 1.3e-05 S·m2/mol and the molar conductivity (318.15 K, m1 = 0.0005324) was 0.009434 ± 9.6e-06 S·m2/mol. It also gave a molar conductivity (318.15 K, m1 = 0.0007651) of 0.0093342 ± 7.7e-06 S·m2/mol, a molar conductivity (318.15 K, m1 = 0.001206) of 0.0091821 ± 6.2e-06 S·m2/mol and a molar conductivity (318.15 K, m1 = 0.001977) of 0.0089725 ± 5.1e-06 S·m2/mol. For the same compound, the molar conductivity (318.15 K, m1 = 0.002989) was 0.0087596 ± 4.3e-06 S·m2/mol, the molar conductivity (318.15 K, m1 = 0.003967) was 0.0085894 ± 3.5e-06 S·m2/mol and the molar conductivity (318.15 K, m1 = 0.005938) was 0.0083142 ± 3.1e-06 S·m2/mol. For the same compound, the molar conductivity (318.15 K, m1 = 0.007894) was 0.0080896 ± 2.7e-06 S·m2/mol, the molar conductivity (318.15 K, m1 = 0.009905) was 0.0078947 ± 2.5e-06 S·m2/mol and the molar conductivity (318.15 K, m1 = 0.01189) was 0.0077299 ± 2.3e-06 S·m2/mol.
